Reference: ChEMBL document CHEMBL4800729 (2021)

Experiments:
[1] = target: 5-hydroxytryptamine receptor 7 (Homo sapiens, UniProt P34969); experiment: GPCRScan assay: inhibition of 5-HT7A; parameters: radioligand conc. used [nm] 5.0 – 6.0, parental cells Stable HEK
[2] = target: Cyclin-dependent kinase 2/cyclin E (Homo sapiens) (UniProt P24864+P24941+O96020); experiment: CDK2/cyclinE(h) Millipore kinase panel; assay type: protein-complex assay; conditions: Compound concentration 1.0 uM
[3] = target: Testis-specific serine/threonine-protein kinase 3 (Homo sapiens) (UniProt Q96PN8); experiment: TSSK3(h) Millipore kinase panel; conditions: Compound concentration 1.0 uM
[4] = target: Sigma intracellular receptor 2 (Homo sapiens) (UniProt Q5BJF2); conditions: Compound concentration 10.0 uM
[5] = target: Ribosomal protein S6 kinase alpha-5 (Homo sapiens) (UniProt O75582); experiment: MSK1(h) Millipore kinase panel; conditions: Compound concentration 1.0 uM
[6] = target: Ribosomal protein S6 kinase beta-1 (Homo sapiens) (UniProt P23443); experiment: p70S6K(h) Millipore kinase panel; conditions: Compound concentration 1.0 uM
[7] = target: Tyrosine-protein kinase JAK1 (Homo sapiens) (UniProt P23458); experiment: JAK1(h) Millipore kinase panel; conditions: Compound concentration 1.0 uM
[8] = target: 5-hydroxytryptamine receptor 2C (Homo sapiens) (UniProt P28335); conditions: Compound concentration 10.0 uM
[9] = target: Mitogen-activated protein kinase kinase kinase kinase 5 (Homo sapiens) (UniProt Q9Y4K4); experiment: MAP4K5(h) Millipore kinase panel; conditions: Compound concentration 1.0 uM
[10] = target: Serine-protein kinase ATM (Homo sapiens) (UniProt Q13315); experiment: ATM(h) Millipore kinase panel; conditions: Compound concentration 1.0 uM
[11] = target: T1, 5-hydroxytryptamine receptor 1A (Homo sapiens) (UniProt P08908); conditions: Compound concentration 10.0 uM
T1 sequence (whole entry): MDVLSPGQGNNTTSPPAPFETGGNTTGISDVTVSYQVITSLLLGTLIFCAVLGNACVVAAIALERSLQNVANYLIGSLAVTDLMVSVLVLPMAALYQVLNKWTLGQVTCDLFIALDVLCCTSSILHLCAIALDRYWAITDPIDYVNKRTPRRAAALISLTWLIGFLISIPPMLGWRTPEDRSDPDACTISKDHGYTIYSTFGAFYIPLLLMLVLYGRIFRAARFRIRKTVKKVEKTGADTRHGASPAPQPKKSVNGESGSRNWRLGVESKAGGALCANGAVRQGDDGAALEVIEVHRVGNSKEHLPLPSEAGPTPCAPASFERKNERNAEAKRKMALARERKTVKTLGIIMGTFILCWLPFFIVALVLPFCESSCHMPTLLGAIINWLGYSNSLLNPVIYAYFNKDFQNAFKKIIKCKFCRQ

[12] = target: Phosphatidylinositol 4,5-bisphosphate 3-kinase catalytic subunit gamma isoform (Homo sapiens) (UniProt P48736); experiment: PI3 Kinase (p120g)(h) Millipore kinase panel; conditions: Compound concentration 1.0 uM
[13] = target: Focal adhesion kinase 1 (Homo sapiens) (UniProt Q05397); experiment: FAK(h Millipore kinase panel; conditions: Compound concentration 1.0 uM
[14] = target: Tyrosine-protein kinase ITK/TSK (Homo sapiens) (UniProt Q08881); experiment: Itk(h) Millipore kinase panel; conditions: Compound concentration 1.0 uM
[15] = target: Rhodopsin kinase GRK1 (Homo sapiens) (UniProt Q15835); experiment: GRK1(h) Millipore kinase panel; conditions: Compound concentration 1.0 uM
[16] = target: Phosphorylase b kinase gamma catalytic chain, skeletal muscle/heart isoform (Homo sapiens) (UniProt Q16816); experiment: PhKgamma1(h) Millipore kinase panel; conditions: Compound concentration 1.0 uM
[17] = target: Tyrosine-protein kinase Lck (Homo sapiens) (UniProt P06239); experiment: Lck(h) Millipore kinase panel; conditions: Compound concentration 1.0 uM
[18] = target: Glutamate NMDA receptor (Rattus norvegicus) (UniProt P35439+Q00959+Q00960+Q00961+Q62645+Q8VHN2+Q9R1M7); conditions: Compound concentration 10.0 uM
[19] = target: Casein kinase I isoform delta (Homo sapiens) (UniProt P48730); experiment: CK1delta(h) Millipore kinase panel; conditions: Compound concentration 1.0 uM
[20] = target: Cyclin-dependent kinase 4/cyclin D (Homo sapiens) (UniProt P11802+P24385+P30281+P30279); experiment: CDK4/cyclinD Millipore kinase panel; assay type: protein-complex assay; conditions: Compound concentration 1.0 uM
[21] = target: Tyrosine-protein kinase JAK2 (Homo sapiens) (UniProt O60674); experiment: JAK2(h) Millipore kinase panel; conditions: Compound concentration 1.0 uM
[22] = target: Mu-type opioid receptor (Homo sapiens) (UniProt P35372); conditions: Compound concentration 10.0 uM
[23] = target: Delta-type opioid receptor (Homo sapiens) (UniProt P41143); conditions: Compound concentration 10.0 uM
[24] = target: Serine/threonine-protein kinase pim-1 (Homo sapiens) (UniProt P11309); experiment: Pim-1(h) Millipore kinase panel; conditions: Compound concentration 1.0 uM
[25] = target: Serine/threonine-protein kinase Nek11 (Homo sapiens) (UniProt Q8NG66); experiment: NEK11(h) Millipore kinase panel; conditions: Compound concentration 1.0 uM
[26] = target: Protein kinase C zeta type (Homo sapiens) (UniProt Q05513); experiment: PKCzeta(h) Millipore kinase panel; conditions: Compound concentration 1.0 uM
[27] = target: Serine/threonine-protein kinase Nek6 (Homo sapiens) (UniProt Q9HC98); experiment: NEK6(h) Millipore kinase panel; conditions: Compound concentration 1.0 uM
[28] = target: Cyclin-dependent kinase-like 1 (Homo sapiens) (UniProt Q00532); experiment: CDKL1(h) Millipore kinase panel; conditions: Compound concentration 1.0 uM
[29] = target: Aurora kinase C (Homo sapiens) (UniProt Q9UQB9); experiment: Aurora_C(h) Millipore kinase panel; conditions: Compound concentration 1.0 uM
[30] = target: Prostaglandin G/H synthase 2 (Homo sapiens) (UniProt P35354); experiment: Cyclooxygenase COX-2 Eurofins-Panlabs enzyme assay; parameters: substrate with concentration; conditions: Compound concentration 10.0 uM
[31] = target: cGMP-dependent protein kinase 2 (Homo sapiens) (UniProt Q13237); experiment: PRKG2(h) Millipore kinase panel; conditions: Compound concentration 1.0 uM
[32] = target: mTOR/FKBP12A/FKBP12B (Homo sapiens) (UniProt P62942+P68106+P42345); experiment: mTOR FKBP12(h) Millipore kinase panel; assay type: protein-complex assay; conditions: Compound concentration 1.0 uM
[33] = target: Serine/threonine-protein kinase N1 (Homo sapiens) (UniProt Q16512); experiment: PRK1(h) Millipore kinase panel; conditions: Compound concentration 1.0 uM
[34] = target: PI3-kinase p110-delta/p85-alpha (Homo sapiens) (UniProt P27986+O00329); experiment: PI3 Kinase (p110d/p85a)(h) Millipore kinase panel; assay type: protein-complex assay; conditions: Compound concentration 1.0 uM
[35] = target: Mitogen-activated protein kinase 13 (Homo sapiens) (UniProt O15264); experiment: SAPK4(h) Millipore kinase panel; conditions: Compound concentration 1.0 uM
[36] = target: Calcium/calmodulin-dependent protein kinase type 1D (Homo sapiens) (UniProt Q8IU85); experiment: CaMKIdelta(h) Millipore kinase panel; conditions: Compound concentration 1.0 uM
[37] = target: Glucocorticoid receptor (Homo sapiens) (UniProt P04150); conditions: Compound concentration 10.0 uM
[38] = target: 5'-AMP-activated protein kinase catalytic subunit alpha-2 (Homo sapiens) (UniProt P54646); experiment: AMPKalpha2(h) Millipore kinase panel; conditions: Compound concentration 1.0 uM
[39] = target: CDK3/cyclin E (Homo sapiens) (UniProt P24864+O96020+Q00526); experiment: CDK3/cyclinE(h) Millipore kinase panel; assay type: protein-complex assay; conditions: Compound concentration 1.0 uM
[40] = target: Protein kinase C eta type (Homo sapiens) (UniProt P24723); experiment: PKCeta(h) Millipore kinase panel; conditions: Compound concentration 1.0 uM
[41] = target: Cytoplasmic tyrosine-protein kinase BMX (Homo sapiens) (UniProt P51813); experiment: Bmx(h) Millipore kinase panel; conditions: Compound concentration 1.0 uM
Cytoplasmic tyrosine-protein kinase BMX (Homo sapiens), sequence (P51813 whole entry): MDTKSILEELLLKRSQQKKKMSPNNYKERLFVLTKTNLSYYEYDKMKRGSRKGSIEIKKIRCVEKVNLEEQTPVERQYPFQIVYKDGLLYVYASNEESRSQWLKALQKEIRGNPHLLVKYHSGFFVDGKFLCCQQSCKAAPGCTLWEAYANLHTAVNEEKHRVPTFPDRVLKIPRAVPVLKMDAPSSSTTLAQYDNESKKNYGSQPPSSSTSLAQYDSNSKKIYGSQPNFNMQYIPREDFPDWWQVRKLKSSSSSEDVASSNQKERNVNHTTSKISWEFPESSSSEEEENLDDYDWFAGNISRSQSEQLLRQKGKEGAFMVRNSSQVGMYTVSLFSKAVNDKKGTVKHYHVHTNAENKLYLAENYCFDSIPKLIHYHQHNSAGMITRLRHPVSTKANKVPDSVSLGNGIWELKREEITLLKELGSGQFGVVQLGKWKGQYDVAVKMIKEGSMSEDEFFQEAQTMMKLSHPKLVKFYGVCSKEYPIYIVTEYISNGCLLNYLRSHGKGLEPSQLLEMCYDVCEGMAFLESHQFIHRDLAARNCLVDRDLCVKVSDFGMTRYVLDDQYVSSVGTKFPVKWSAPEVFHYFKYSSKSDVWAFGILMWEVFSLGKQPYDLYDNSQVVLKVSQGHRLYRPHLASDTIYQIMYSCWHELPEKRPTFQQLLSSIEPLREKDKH

5-hydroxytryptamine receptor 7, sequence (P34969 whole entry): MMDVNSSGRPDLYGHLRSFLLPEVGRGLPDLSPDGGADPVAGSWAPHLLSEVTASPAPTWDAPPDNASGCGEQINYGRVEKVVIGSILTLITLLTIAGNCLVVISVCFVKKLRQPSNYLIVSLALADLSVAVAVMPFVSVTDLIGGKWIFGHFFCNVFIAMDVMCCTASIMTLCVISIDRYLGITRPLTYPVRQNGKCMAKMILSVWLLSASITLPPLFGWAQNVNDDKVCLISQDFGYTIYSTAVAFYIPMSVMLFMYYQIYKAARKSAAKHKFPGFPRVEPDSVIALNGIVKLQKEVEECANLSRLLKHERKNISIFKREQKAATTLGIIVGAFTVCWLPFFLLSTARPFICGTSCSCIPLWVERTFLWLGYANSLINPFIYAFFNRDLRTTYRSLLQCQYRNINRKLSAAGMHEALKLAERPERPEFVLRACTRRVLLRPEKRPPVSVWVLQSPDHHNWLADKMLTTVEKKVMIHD
Testis-specific serine/threonine-protein kinase 3 (Homo sapiens), sequence (Q96PN8 whole entry): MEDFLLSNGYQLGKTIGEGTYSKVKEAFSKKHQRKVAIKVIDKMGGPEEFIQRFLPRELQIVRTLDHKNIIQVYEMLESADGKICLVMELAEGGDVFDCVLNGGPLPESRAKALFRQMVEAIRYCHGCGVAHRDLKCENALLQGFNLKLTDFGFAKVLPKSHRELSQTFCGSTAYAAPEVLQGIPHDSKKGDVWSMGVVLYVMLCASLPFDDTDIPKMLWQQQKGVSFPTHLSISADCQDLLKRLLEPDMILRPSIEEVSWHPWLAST
Tyrosine-protein kinase Lck (Homo sapiens), sequence (P06239 2-509 limits assumed): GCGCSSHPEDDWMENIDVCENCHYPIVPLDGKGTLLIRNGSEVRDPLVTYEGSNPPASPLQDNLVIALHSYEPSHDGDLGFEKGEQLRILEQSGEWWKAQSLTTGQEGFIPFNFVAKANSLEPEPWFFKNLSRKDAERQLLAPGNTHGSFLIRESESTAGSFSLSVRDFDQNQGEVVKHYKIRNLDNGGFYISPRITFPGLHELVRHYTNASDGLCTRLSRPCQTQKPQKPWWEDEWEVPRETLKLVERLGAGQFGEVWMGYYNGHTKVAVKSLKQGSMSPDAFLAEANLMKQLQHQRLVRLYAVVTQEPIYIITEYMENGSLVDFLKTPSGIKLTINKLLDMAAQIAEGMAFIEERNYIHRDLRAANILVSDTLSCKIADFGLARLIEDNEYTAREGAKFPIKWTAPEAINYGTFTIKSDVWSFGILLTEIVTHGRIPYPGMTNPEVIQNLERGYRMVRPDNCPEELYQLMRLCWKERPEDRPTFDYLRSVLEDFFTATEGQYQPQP
Protein kinase C zeta type (Homo sapiens), sequence (Q05513 whole entry): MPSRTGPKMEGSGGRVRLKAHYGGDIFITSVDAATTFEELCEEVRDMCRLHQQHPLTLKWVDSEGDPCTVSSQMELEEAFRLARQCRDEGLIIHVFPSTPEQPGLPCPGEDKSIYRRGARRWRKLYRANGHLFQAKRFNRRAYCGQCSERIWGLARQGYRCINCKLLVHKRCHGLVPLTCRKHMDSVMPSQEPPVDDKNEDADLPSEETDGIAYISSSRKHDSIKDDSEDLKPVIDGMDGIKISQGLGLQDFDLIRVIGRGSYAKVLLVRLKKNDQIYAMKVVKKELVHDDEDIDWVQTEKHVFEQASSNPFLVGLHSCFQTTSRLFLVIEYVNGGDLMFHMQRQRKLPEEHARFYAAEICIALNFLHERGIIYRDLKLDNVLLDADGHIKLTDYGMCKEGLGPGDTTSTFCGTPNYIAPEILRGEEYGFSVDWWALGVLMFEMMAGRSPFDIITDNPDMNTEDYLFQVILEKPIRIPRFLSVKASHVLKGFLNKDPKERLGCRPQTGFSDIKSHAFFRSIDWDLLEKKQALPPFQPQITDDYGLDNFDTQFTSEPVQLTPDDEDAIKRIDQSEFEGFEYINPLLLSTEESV
Ribosomal protein S6 kinase beta-1 (Homo sapiens), sequence (P23443 whole entry, looked up): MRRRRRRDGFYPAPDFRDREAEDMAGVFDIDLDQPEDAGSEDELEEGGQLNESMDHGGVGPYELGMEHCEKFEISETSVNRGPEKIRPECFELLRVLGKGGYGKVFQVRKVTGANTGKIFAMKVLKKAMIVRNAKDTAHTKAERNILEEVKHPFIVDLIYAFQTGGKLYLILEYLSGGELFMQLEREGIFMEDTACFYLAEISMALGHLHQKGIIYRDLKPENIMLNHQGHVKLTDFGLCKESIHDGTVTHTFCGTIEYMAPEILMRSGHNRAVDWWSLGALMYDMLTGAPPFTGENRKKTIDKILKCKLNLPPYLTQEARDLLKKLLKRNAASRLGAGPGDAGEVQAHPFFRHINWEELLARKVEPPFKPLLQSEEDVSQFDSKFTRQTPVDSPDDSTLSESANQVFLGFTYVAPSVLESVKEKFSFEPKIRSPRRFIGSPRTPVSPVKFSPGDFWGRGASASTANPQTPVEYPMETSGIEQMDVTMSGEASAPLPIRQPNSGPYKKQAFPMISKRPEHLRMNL
Delta-type opioid receptor (Homo sapiens), sequence (P41143 whole entry): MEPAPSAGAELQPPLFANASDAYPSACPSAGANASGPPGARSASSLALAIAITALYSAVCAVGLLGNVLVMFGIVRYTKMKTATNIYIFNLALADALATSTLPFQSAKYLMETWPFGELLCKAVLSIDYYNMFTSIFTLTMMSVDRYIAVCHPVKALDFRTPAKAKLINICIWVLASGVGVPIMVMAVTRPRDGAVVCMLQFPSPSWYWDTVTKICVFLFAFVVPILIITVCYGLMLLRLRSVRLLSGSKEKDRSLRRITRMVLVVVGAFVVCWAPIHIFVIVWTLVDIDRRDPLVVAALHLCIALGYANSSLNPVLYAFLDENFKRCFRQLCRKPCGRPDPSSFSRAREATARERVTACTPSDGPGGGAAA
mTOR/FKBP12A/FKBP12B (Homo sapiens), sequence (P62942 2-108 limits assumed, other chains not shown): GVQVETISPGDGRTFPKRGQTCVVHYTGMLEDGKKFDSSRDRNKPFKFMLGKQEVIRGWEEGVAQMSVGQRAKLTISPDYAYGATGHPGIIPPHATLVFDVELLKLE
mTOR/FKBP12A/FKBP12B (Homo sapiens), sequence (P68106 whole entry partner, other chains not shown): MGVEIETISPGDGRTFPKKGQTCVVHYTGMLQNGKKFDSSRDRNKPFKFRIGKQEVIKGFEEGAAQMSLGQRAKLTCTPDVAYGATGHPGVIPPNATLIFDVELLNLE
Serine/threonine-protein kinase Nek6 (Homo sapiens), sequence (Q9HC98 whole entry): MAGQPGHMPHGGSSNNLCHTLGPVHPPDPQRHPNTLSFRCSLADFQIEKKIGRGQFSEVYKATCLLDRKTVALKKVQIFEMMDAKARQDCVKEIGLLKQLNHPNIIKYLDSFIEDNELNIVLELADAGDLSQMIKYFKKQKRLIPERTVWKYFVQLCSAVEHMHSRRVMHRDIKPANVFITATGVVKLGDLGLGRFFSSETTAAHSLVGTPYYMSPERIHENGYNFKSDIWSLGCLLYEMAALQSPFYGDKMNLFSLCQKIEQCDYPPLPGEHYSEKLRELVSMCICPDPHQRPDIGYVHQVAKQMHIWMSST
cGMP-dependent protein kinase 2 (Homo sapiens), sequence (Q13237 whole entry): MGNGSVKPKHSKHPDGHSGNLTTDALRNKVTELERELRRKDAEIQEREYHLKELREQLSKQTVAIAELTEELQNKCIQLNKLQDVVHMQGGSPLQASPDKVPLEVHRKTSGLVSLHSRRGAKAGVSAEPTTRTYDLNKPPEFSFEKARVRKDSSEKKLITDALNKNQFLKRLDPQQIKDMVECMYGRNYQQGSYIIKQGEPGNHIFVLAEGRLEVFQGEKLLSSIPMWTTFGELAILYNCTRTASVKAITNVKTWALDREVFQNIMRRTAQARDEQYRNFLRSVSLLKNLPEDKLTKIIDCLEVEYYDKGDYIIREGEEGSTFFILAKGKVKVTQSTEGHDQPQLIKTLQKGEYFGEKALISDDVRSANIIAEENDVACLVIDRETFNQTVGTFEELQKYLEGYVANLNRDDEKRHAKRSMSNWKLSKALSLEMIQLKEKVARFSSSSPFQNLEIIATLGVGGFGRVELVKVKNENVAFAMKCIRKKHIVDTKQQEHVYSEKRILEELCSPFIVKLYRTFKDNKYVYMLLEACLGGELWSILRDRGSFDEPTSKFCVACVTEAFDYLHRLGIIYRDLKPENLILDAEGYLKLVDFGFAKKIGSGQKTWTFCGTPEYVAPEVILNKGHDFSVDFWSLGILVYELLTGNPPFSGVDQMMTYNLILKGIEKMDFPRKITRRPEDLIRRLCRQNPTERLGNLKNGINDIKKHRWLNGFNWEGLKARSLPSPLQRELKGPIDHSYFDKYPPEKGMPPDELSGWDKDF
Sigma intracellular receptor 2 (Homo sapiens), sequence (Q5BJF2 whole entry): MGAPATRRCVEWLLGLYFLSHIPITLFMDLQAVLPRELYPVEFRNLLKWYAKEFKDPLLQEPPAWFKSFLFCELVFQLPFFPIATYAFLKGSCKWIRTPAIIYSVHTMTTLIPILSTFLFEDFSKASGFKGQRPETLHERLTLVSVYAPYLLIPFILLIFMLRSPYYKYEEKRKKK

CC[C@@H](Nc1c(C#N)c(-c2ccc(-c3cccc(C)c3F)cc2)nc2cnccc12)C(=O)O [BAY-091]
Ki [1]: > 10 µM
pKi [1]: < 5
inhibition [2]: 7.13%
inhibition [3]: 8.88%
inhibition [4]: 24.6%
inhibition [5]: 1.48%
inhibition [6]: 4.3%
inhibition [7]: -0.44%
inhibition [8]: 29%
inhibition [9]: 13.3%
inhibition [10]: 0.32%
inhibition [11]: -4.91%
inhibition [12]: 14.4%
inhibition [13]: 13.3%
inhibition [14]: 9.18%
inhibition [15]: 1.52%
inhibition [16]: -9.06%
inhibition [17]: -0.68%
inhibition [18]: -1%
inhibition [19]: 9.07%
inhibition [20]: 11.3%
inhibition [21]: -5.62%
inhibition [22]: 1.43%
inhibition [23]: 25%
inhibition [24]: -2.53%
inhibition [25]: 7.12%
inhibition [26]: -2.41%
inhibition [27]: 9.31%
inhibition [28]: 4.02%
inhibition [29]: 4.64%
inhibition [30]: 29%
inhibition [31]: 12.7%
inhibition [32]: 1.38%
inhibition [33]: 5.64%
inhibition [34]: 30.9%
inhibition [35]: -3.58%
inhibition [36]: 4.68%
inhibition [37]: 32%
inhibition [38]: -5.39%
inhibition [39]: 2.41%
inhibition [40]: 3.77%
inhibition [41]: 3.69%
